# Data as given in paper PMC3388095, “Fluorophore Labeled Kinase Detects Ligands That Bind within the MAPK Insert of p38α Kinase” (PLoS ONE, 2012).
# Tests used:
# Experiment in all cases: Kinase selectivity profile, 33P-ATP filter-binding assay
# Assay type in all cases: biochemical
# [1] = target: IKKε (Homo sapiens, UniProt Q14164)
# Description: (§1) Figure 5 Kinase selectivity profile of 1b. Compound 1b was profiled against a selected panel of 95 different kinases at a concentration of 10 µM employing a radioactive (^33P-ATP) filter-binding assay (National Centre for Protein Kinase Profiling, Dundee). The numbers represent the remaining kinase activity in %. […] TEXT PRINTED IN THE PICTURE: no label printed: Aurora B: 53; MNK2: 67; MINK1: 69; HER4: 71; MKK1: 75; PKBβ: 75; PHK: 76; PIM2: 76; PIM3: 77; CHK2: 78; PKD1: 79; TBK1: 79; PAK4: 80; Lck: 80; GSK3β: 80; IGF-1R: 81; p38δ MAPK: 81; PIM1: 82; SRPK1: 83; SmMLCK: 83; MAPKAP-K3: 84; EPH A2: 85; MELK: 85; CK2: 85; CK1: 86; CAMK1: 86; PLK1: 87; MST2: 87; IR-HIS: 87; BTK: 87; HIPK1: 87; p38α MAPK: 88; DYRK2: 88; JNK3: 88; PAK5: 88; IKKε: 89; p38β MAPK: 89; NUAK1: 90; PAK2: 90; MNK1: 91; ERK8: 91; GCK: 91; PRAK: 91; MLK1: 92; SGK1: 92; PAK6: 92; TTK: 92; BRSK2: 92; MARK4: 93; CHK1: 93; RIPK2: 94; CDK2-Cyclin A: 94; JNK1: 94; AMPK: 94; VEG-FR: 95; DYRK1A: 95; CAMKKβ: 95; PKCα: 96; S6K1: 96; MSK1: 96; PKCz: 96; YES1: 96; RSK1: 97; IRAK4: 97; DYRK3: 97; IKKβ: 97; ERK2: 98; MLK3: 98; RSK2: 98; LKB1: 98; MAPKAP-K2: 98; ERK1: 99; FGF-R1: 99; SYK: 99; MST4: 99; MARK3: 99; MARK2: 100; PDK1: 100; JNK2: 101; HIPK2: 101; BRSK1: 102; EF2K: 102; PRK2: 103; Aurora A: 104; IRR: 104; CSK: 104; PKA: 104; NEK6: 105; p38γ MAPK: 105; Src: 107; PKBα: 109; ROCK 2: 109; EPH-B3: 112; HIPK3: 115; NEK2α: 119 DOUBTS OF THE COPYIST ABOUT THIS PICTURE: The picture prints no compound label and no measure or unit for the numbers; only the colour scale 'Inhibition weak/strong' is printed. / PKCz: the last letter may be z or ζ / NEK2α: the last letter may be a or α / IKKε: the last letter may be ε or e
# [2] = target: p38δ MAPK (Homo sapiens, UniProt O15264)
# Description: as §1
# [3] = target: PAK5 (Homo sapiens, UniProt Q9P286)
# Description: as §1
# [4] = target: PKD1 (Homo sapiens, UniProt Q15139)
# Description: as §1
# [5] = target: BRSK1 (Homo sapiens, UniProt Q8TDC3)
# Description: as §1
# [6] = target: BTK (Homo sapiens, UniProt Q06187)
# Description: as §1
# [7] = target: MST2 (Homo sapiens, UniProt Q13188)
# Description: as §1
# [8] = target: PIM1 (Homo sapiens, UniProt P11309)
# Description: as §1
# [9] = target: PRAK (Homo sapiens, UniProt Q8IW41)
# Description: as §1
# [10] = target: HIPK1 (Homo sapiens, UniProt Q86Z02)
# Description: as §1
# [11] = target: MLK3 (Homo sapiens, UniProt Q16584)
# Description: as §1
# [12] = target: MAPKAP-K3 (Homo sapiens, UniProt Q16644)
# Description: as §1
# [13] = target: MNK2 (Homo sapiens, UniProt Q9HBH9)
# Description: as §1
# [14] = target: IGF-1R (Homo sapiens, UniProt P08069)
# Description: as §1
# [15] = target: p38γ MAPK (Homo sapiens, UniProt P53778)
# Description: as §1
# [16] = target: CAMK1 (Homo sapiens, UniProt Q14012)
# Description: as §1
# [17] = target: RSK1 (Homo sapiens, UniProt Q15418)
# Description: as §1
# [18] = target: CHK2 (Homo sapiens, UniProt O96017)
# Description: as §1
# [19] = target: LKB1 (Homo sapiens, UniProt Q15831)
# Description: as §1
# [20] = target: ROCK 2 (Rattus norvegicus, UniProt Q62868)
# Description: as §1
# [21] = target: BRSK2 (Homo sapiens, UniProt Q8IWQ3)
# Description: as §1
# [22] = target: GCK (Homo sapiens, UniProt Q12851)
# Description: as §1
# [23] = target: S6K1 (Homo sapiens, UniProt P23443)
# Description: as §1
# [24] = target: EPH-B3 (Homo sapiens, UniProt P54753)
# Description: as §1
# [25] = target: Lck (Homo sapiens, UniProt P06239)
# Description: as §1
# [26] = target: PIM2 (Homo sapiens, UniProt Q9P1W9)
# Description: as §1
# [27] = target: SGK1 (Homo sapiens, UniProt O00141)
# Description: as §1
# LKB1, sequence (Q15831 whole entry): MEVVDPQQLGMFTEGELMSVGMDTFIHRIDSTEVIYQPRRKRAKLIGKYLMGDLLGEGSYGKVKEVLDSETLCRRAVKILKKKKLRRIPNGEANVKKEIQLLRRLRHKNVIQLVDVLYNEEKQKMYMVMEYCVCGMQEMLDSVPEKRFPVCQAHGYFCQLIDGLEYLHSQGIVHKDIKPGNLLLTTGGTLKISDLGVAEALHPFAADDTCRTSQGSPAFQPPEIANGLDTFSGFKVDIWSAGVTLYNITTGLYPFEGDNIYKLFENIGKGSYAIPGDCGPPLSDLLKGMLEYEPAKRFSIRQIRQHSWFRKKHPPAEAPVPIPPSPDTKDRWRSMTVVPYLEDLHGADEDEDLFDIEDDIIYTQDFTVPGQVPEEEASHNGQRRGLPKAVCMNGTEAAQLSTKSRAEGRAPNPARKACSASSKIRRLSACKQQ
# LKB1, sequence (Q7RTN6 whole entry partner): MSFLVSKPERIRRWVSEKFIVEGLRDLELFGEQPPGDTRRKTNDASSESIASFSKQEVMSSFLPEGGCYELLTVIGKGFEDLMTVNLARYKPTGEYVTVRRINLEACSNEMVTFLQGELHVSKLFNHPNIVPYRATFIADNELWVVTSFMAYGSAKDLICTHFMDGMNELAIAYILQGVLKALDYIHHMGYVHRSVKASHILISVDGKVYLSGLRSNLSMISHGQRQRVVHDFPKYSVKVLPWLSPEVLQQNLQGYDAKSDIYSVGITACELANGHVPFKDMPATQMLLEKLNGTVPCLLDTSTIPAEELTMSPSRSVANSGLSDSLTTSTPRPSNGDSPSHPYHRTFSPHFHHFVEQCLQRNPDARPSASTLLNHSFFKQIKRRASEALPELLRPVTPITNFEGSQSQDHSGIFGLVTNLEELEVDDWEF
# LKB1, sequence (Q9Y376 whole entry partner): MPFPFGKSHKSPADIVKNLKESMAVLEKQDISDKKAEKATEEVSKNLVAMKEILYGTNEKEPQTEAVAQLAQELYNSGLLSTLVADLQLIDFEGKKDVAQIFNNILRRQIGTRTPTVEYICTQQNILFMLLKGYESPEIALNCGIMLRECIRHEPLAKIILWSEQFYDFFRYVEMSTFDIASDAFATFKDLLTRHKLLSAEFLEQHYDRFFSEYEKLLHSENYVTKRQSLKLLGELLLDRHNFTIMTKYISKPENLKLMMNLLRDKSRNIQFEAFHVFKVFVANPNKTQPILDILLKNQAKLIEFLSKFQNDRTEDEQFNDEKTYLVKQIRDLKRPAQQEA
# PRAK, sequence (Q8IW41 whole entry): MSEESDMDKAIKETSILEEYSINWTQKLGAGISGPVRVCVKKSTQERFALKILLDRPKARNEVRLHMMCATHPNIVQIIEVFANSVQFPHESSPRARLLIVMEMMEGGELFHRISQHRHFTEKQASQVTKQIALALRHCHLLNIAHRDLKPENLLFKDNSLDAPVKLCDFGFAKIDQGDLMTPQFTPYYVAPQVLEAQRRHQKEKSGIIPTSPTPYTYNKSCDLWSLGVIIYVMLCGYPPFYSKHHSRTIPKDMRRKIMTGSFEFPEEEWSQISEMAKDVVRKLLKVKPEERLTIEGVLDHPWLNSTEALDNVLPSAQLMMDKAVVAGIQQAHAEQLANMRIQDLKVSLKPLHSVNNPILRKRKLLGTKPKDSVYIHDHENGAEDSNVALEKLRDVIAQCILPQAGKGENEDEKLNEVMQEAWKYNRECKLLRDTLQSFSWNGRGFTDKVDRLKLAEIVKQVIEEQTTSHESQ
# BRSK2, sequence (Q8IWQ3 whole entry): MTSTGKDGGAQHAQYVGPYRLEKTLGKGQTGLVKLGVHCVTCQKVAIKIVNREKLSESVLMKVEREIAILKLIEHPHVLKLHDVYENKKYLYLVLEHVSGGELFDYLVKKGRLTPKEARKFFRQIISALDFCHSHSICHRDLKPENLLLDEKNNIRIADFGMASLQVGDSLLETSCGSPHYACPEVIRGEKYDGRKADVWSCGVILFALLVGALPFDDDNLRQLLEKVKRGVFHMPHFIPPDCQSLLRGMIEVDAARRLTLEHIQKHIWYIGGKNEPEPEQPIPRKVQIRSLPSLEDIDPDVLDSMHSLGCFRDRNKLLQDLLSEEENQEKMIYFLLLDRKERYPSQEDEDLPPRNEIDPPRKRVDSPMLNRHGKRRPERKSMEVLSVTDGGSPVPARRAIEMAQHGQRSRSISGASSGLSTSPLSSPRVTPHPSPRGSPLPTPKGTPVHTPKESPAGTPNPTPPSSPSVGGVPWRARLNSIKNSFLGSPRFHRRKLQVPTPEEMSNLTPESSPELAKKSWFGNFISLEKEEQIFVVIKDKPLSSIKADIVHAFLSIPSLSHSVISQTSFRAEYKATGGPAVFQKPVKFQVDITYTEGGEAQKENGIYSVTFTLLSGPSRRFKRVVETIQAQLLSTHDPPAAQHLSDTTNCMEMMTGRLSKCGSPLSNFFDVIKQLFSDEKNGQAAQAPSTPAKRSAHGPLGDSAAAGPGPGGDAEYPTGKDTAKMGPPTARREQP
# CHK2, sequence (O96017 whole entry): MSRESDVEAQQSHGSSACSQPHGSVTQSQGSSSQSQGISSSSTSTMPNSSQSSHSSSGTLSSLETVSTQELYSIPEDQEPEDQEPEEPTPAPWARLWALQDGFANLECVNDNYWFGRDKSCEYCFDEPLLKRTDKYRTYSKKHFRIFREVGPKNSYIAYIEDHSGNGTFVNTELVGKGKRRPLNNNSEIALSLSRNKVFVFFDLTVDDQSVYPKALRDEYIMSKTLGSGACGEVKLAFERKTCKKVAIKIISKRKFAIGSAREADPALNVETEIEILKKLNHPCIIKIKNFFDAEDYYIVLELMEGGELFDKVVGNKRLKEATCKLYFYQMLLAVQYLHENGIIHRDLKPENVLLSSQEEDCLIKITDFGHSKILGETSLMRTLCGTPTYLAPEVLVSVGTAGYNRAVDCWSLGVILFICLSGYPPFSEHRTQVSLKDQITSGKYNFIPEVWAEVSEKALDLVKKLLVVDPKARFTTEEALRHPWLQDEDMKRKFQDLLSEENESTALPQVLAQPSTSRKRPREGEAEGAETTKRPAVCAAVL
# p38δ MAPK, sequence (O15264 whole entry): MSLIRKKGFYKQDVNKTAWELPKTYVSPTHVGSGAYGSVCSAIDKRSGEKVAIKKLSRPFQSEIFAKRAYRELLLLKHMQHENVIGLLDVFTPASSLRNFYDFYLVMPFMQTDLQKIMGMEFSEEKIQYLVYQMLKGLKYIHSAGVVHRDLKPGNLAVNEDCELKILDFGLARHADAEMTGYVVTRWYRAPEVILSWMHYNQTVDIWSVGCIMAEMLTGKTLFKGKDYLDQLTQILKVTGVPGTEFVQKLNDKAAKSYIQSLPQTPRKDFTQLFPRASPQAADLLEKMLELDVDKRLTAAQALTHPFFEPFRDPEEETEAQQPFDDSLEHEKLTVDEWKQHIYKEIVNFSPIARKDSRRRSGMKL
# HIPK1, sequence (Q86Z02 whole entry): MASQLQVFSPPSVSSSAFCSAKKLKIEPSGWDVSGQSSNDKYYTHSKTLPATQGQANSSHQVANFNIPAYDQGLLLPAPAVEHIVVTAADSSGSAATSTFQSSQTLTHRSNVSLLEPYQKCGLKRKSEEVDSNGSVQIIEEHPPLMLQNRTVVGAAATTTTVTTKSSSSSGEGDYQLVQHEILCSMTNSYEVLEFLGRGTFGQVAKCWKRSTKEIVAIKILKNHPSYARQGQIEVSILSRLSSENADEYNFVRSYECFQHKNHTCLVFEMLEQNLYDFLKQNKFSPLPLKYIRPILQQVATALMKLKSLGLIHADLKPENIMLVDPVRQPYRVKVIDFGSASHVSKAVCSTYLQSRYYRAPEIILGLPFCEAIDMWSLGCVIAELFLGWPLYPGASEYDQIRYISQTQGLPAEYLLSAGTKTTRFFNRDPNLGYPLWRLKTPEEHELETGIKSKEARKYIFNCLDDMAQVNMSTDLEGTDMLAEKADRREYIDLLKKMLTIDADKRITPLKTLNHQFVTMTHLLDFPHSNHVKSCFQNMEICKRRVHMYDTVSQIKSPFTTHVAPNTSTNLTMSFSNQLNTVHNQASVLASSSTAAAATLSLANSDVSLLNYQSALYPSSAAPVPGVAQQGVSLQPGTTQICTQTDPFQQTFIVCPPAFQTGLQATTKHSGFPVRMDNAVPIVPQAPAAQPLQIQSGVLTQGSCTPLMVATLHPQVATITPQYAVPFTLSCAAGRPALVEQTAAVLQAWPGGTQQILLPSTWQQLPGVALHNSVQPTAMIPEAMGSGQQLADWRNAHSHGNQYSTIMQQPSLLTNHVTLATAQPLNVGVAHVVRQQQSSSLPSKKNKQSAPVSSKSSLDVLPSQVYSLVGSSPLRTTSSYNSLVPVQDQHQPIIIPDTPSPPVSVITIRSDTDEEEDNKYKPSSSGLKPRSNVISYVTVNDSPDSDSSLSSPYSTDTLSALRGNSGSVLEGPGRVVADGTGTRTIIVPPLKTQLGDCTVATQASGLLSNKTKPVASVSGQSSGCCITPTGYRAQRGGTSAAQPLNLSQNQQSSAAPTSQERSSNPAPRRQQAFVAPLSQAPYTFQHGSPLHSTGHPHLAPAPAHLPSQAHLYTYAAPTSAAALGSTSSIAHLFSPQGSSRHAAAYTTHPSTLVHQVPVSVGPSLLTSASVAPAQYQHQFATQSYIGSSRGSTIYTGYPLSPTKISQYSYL
# MAPKAP-K3, sequence (Q16644 whole entry): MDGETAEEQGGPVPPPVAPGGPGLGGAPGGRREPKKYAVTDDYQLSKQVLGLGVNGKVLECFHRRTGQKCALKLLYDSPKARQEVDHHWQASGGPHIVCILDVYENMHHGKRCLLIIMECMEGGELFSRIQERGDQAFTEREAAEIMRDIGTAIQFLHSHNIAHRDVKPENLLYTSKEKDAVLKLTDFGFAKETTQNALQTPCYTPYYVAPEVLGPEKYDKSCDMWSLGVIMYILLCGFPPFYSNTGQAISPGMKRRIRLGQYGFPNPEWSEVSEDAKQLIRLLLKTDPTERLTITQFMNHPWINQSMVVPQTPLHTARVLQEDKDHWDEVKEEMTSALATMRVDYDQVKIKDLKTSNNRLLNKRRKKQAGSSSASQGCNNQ
smiles,measurement,setting,value
"Nc1ccc2c(NC3CC3)nc(-c3ccccc3)nc2c1 [1b, N^4-Cyclopropyl-2-phenyl-4,7-quinazolinediamine]",remaining activity at 10 µM,[1],89%
same,remaining activity at 10 µM,[2],81%
same,remaining activity at 10 µM,[3],88%
same,remaining activity at 10 µM,[4],79%
same,remaining activity at 10 µM,[5],102%
same,remaining activity at 10 µM,[6],87%
same,remaining activity at 10 µM,[7],87%
same,remaining activity at 10 µM,[8],82%
same,remaining activity at 10 µM,[9],91%
same,remaining activity at 10 µM,[10],87%
same,remaining activity at 10 µM,[11],98%
same,remaining activity at 10 µM,[12],84%
same,remaining activity at 10 µM,[13],67%
same,remaining activity at 10 µM,[14],81%
same,remaining activity at 10 µM,[15],105%
same,remaining activity at 10 µM,[16],86%
same,remaining activity at 10 µM,[17],97%
same,remaining activity at 10 µM,[18],78%
same,remaining activity at 10 µM,[19],98%
same,remaining activity at 10 µM,[20],109%
same,remaining activity at 10 µM,[21],92%
same,remaining activity at 10 µM,[22],91%
same,remaining activity at 10 µM,[23],96%
same,remaining activity at 10 µM,[24],112%
same,remaining activity at 10 µM,[25],80%
same,remaining activity at 10 µM,[26],76%
same,remaining activity at 10 µM,[27],92%
